Experimental data: publication PMC12423301, “Astrocytic monoamine oxidase B (MAOB)–gamma-aminobutyric acid (GABA) axis as a molecular brake on repair following spinal cord injury” (Signal Transduction and Targeted Therapy, 2025)
Entries after “also recorded” stand apart in the source; their conditions may differ. Like-named read-outs stand apart in the source and are kept apart here.

Assays:
[1] = tested on: rat SCI model; assay: Ki67 promoter dual-virus labeling of proliferating cells; format: in vivo, Sprague-Dawley (SD) rats; settings: SCI + KDS 2w, PI 10w
[2] = tested on: Alzheimer’s disease mouse model; settings: cited from earlier work
[3] = tested on: rat SCI model; assay: EC / LFB staining of rat spinal cord tissue; format: in vivo, Sprague-Dawley (SD) rats
Protocol: EC staining was performed as previously described.[71] The tissue sections were placed on a microscope slide, allowed to dry for 2 h, and then immersed in acetone for 5 min. The slides were incubated for 10 min at 22 ± 2 °C and then treated with EC solution (MERCK, Kenilworth, NJ, USA) for 30 min at 22 ± 2 °C. After the sections were rinsed with running water, they were placed on 5% iron alum (Sigma-Aldrich, F3629) until the gray matter was observed. The sections were differentiated using borax-ferricyanide solution (Borax, Sigma-Aldrich, 71997; Potassium ferricyanide, Sigma-Aldrich, 702587) and dehydrated using graded ethanol solutions of 70%, 90%, and 100% which were changed twice. The sections were mounted with permanent mounting medium (Fisher Scientific, Hampton, NH, USA) and finally observed under a light microscope (DM 2500, Leica, Wetzlar, Germany). LFB staining was performed as previously described.[70] The myelin sheath of axons in the tissue sections were stained with 1% luxol fast blue (Sigma-Aldrich, L0294) at 60 °C overnight. The sections were rinsed with lithium carbonate (Sigma-Aldrich, 255823) solution and differentiated by 70% alcohol and then observed under a light microscope (IX71, Olympus, Tokyo, Japan).

[4] = Phase 1 clinical trial: treatment-emergent adverse events; format: in vivo, human
Protocol: Eligibility criteria included healthy adults (aged 19–45) for the SAD and MAD cohorts, and healthy elderly subjects (aged 65–85) for cohort 11. The participants were excluded if they met the following criteria: serum AST or ALT greater than 60 IU/L, total bilirubin greater than 1.8 mg/dL, creatinine phosphokinase (CPK) levels greater than 405 IU/L, creatinine clearance calculated by the Chronic Kidney Disease Epidemiology Collaboration (CKD-EPI) equation less than 60 mL/min/1.73 m². At the time of randomization, all subjects were required to be free from any clinically significant medical conditions. The study was approved by the Seoul National University Hospital institutional review board and conducted in accordance with the Declaration of Helsinki and Good Clinical Practice guidelines.
Subjects who met the eligibility criteria were admitted to the Seoul National University Hospital Clinical Trial Center one day prior to the first dose administration. […] After administration of the last dose, subjects were discharged 72 h later and visited the outpatient clinic for follow-up on three consecutive days. Pharmacokinetics and safety were monitored until the end of the study, lasting up to 18 days after the last dose.
The primary endpoint was the incidence of TEAEs by dose group. […] Those deemed to have a causal relationship with the drug were classified as ADRs. Dose escalation proceeded under blinded conditions, contingent on the absence of dose-limiting toxicity, as reviewed by a safety review committee.

[5] = Sprague-Dawley, rat, in vivo
[6] = MAD, healthy elderly, Cohort 11, 120 mg, n = 6
[7] = MAD, young healthy adults, Cohort 7, 60 mg, n = 6
[8] = MAD, young healthy adults, Cohort 8, 120 mg, n = 6
[9] = MAD, young healthy adults, Cohort 9, 240 mg, n = 6
[10] = MAD, young healthy adults, Cohort 10, 480 mg, n = 6
[11] = SAD, young healthy adults, Cohort 1, 30 mg, n = 6
[12] = SAD, young healthy adults, Cohort 2, 60 mg, n = 6
[13] = SAD, young healthy adults, Cohort 3, 120 mg, fasting, n = 6
[14] = SAD, young healthy adults, Cohort 3, 120 mg, fed, n = 5
[15] = SAD, young healthy adults, Cohort 4, 240 mg, n = 6
[16] = SAD, young healthy adults, Cohort 5, 480 mg, n = 6
[17] = SAD, young healthy adults, Cohort 6, 960 mg, n = 6

SMILES: CS(=O)(=O)O.C[C@H](NCc1ccc(-c2ccc(C(F)(F)F)cc2)cc1)C(N)=O [KDS2010, (S)-2-(((4’-Trifluoromethylbiphenyl-4-yl)methyl)amino)propanamide methane-sulfonate]
- mCh-positive signals (axon fibers from proliferating/proliferated cells) [1]: traversed the core of the injury site
- learning and memory impairment [2]: reverse learning and memory impairment
- tissue recovery (total cord area, myelinated area) ([3]; 10, 20, and 30 mpk, PI 10w): significant tissue recovery
- total spinal cord, myelinated, gray matter areas and cavity size (EC staining) ([3]; SCI + KDS 2w vs SCI + V, PI 10w): significantly recovered
- total spinal cord and myelinated areas ([3]; SCI + KDS 1 d/Re, PI 10w): significantly recovered
- total spinal cord and myelinated areas ([3]; SCI+KDS 6w vs SCI+V, PI 14w): tendency toward larger; also recorded: increasing trend
- effect of a high-fat meal on the frequency of TEAEs ([4]; 120 mg): did not affect
- TEAE: Abdominal discomfort [4, 6]: 2 (33.3) number of subjects (%)
- TEAE: Constipation [4, 6]: 2 (33.3) number of subjects (%)
- TEAE: Diarrhea [4, 6]: 2 (33.3) number of subjects (%)
- TEAE: Dizziness [4, 6]: 1 (16.7) number of subjects (%)
- TEAE: Hematocrit decreased [4, 6]: 2 (33.3) number of subjects (%)
- TEAE: Red blood cell count decreased [4, 6]: 1 (16.7) number of subjects (%)
- TEAEs: Any [4, 6]: 5 (83.3) number of subjects (%)
- TEAEs: Serious [4, 6]: 0 number of subjects (%)
- TEAE: Cough [4, 7]: 1 (16.7) number of subjects (%)
- TEAE: Rhinorrhoea [4, 7]: 1 (16.7) number of subjects (%)
- TEAEs: Any [4, 7]: 2 (33.3) number of subjects (%)
- TEAEs: Serious [4, 7]: 0 number of subjects (%)
- TEAEs: Any [4, 8]: 0 number of subjects (%)
- TEAEs: Serious [4, 8]: 0 number of subjects (%)
- TEAE: Hypersomnia [4, 9]: 1 (16.7) number of subjects (%)
- TEAEs: Any [4, 9]: 1 (16.7) number of subjects (%)
- TEAEs: Serious [4, 9]: 0 number of subjects (%)
- TEAE: Conjunctival hyperemia [4, 10]: 1 (16.7) number of subjects (%)
- TEAE: Oropharyngeal pain [4, 10]: 1 (16.7) number of subjects (%)
- TEAEs: Any [4, 10]: 2 (33.3) number of subjects (%)
- TEAEs: Serious [4, 10]: 0 number of subjects (%)
- TEAEs: Any [4, 11]: 2 (33.3) number of subjects (%)
- TEAEs: Serious [4, 11]: 0 number of subjects (%)
- TEAE: Cough [4, 12]: 1 (16.7) number of subjects (%)
- TEAE: Oropharyngeal pain [4, 12]: 1 (16.7) number of subjects (%)
- TEAEs: Any [4, 12]: 1 (16.7) number of subjects (%)
- TEAEs: Serious [4, 12]: 0 number of subjects (%)
- TEAE: Neutrophil count increased [4, 13]: 1 (16.7) number of subjects (%)
- TEAEs: Any [4, 13]: 3 (50.0) number of subjects (%)
- TEAEs: Serious [4, 13]: 0 number of subjects (%)
- TEAE: Neutrophil count increased [4, 14]: 2 (40.0) number of subjects (%)
- TEAEs: Any [4, 14]: 3 (60.0) number of subjects (%)
- TEAEs: Serious [4, 14]: 0 number of subjects (%)
- TEAE: Dry eye [4, 15]: 1 (16.7) number of subjects (%)
- TEAE: Neutrophil count increased [4, 15]: 1 (16.7) number of subjects (%)
- TEAE: Ocular discomfort [4, 15]: 1 (16.7) number of subjects (%)
- TEAE: Swelling of the eyelid [4, 15]: 1 (16.7) number of subjects (%)
- TEAE: White blood cell count increased [4, 15]: 1 (16.7) number of subjects (%)
- TEAEs: Any [4, 15]: 2 (33.3) number of subjects (%)
- TEAEs: Serious [4, 15]: 0 number of subjects (%)
- TEAE: Nasal congestion [4, 16]: 1 (16.7) number of subjects (%)
- TEAE: Rhinorrhoea [4, 16]: 1 (16.7) number of subjects (%)
- TEAEs: Any [4, 16]: 2 (33.3) number of subjects (%)
- TEAEs: Serious [4, 16]: 0 number of subjects (%)
- TEAE: Conjunctival hyperemia [4, 17]: 1 (16.7) number of subjects (%)
- TEAE: Dizziness [4, 17]: 1 (16.7) number of subjects (%)
- TEAE: Dry eye [4, 17]: 1 (16.7) number of subjects (%)
- TEAE: Nasal congestion [4, 17]: 2 (33.3) number of subjects (%)
- TEAE: Rhinorrhoea [4, 17]: 1 (16.7) number of subjects (%)
- TEAE: Somnolence [4, 17]: 2 (33.3) number of subjects (%)
- TEAEs: Any [4, 17]: 4 (66.7) number of subjects (%)
- TEAEs: Serious [4, 17]: 0 number of subjects (%)
- number of TEAEs ([4]; all subjects on KDS2010): 56 TEAEs
- number of subjects with TEAEs ([4]; all subjects on KDS2010): 25 subjects
- proportion of subjects with TEAEs ([4]; all subjects on KDS2010): 37.9%
- autonomic nervous system TEAEs ([4]; higher doses (240–960 mg)): TEAEs related to the autonomic nervous system were observed
- incidence of TEAEs vs dose ([4]; phase 1): tended to increase with dose
- serious adverse events ([4]; phase 1, all cohorts): no serious adverse events
- approximate lethal dose ([5]; iv): ≥ 100 mg/kg
- approximate lethal dose ([5]; po): ≥ 1400 mg/kg
